pIC50: −log10 of the molar value. Where a name gives a salt, the structure may show the parent alone.
How the values were obtained:
[1] = biological target: muscarinic cholinergic receptor; test: [3H] Quinuclidinyl Benzilate (3H-QNB) Binding Assay; set-up: species or system rat; conditions: pH 7.4
[2] = biological target: muscarinic cholinergic receptor; test: [3H]-Cis-methyldioxolane (3H-CD) Binding Assay (High Affinity); conditions: rat cerebral cortex, 1.0 nM 3H-CD, 25° C., 120 minutes, pH 7.4
aged monkey = conditions: aged monkeys; cited from earlier work
SDAT patients = conditions: cited from earlier work
[3] = rat cerebral cortex, 0.25 nM 3H-QNB, 25° C., 120 minutes

Row | SMILES | pIC50 [1] | pIC50 [2] | pIC50 [1, 3] | improvement in performance (aged monkey) | improvement compared to physostigmine (SDAT patients)
1 | CC(=O)O[C@H]1CCN(CC#CCN2CCCCC2)C1=O [(S)-3-(Acetyloxy)-1-[4-(1-piperidinyl)-2-butynyl]-2-pyrrolidinone] | 3.44 | 5.84 |  |  | 
2 | CC(=O)O[C@H]1CCN(CC#CCN2CCCC2)C1=O [(S)-3-(Acetyloxy)-1-[4-(1-pyrrolidinyl)-2-butynyl]-2-pyrrolidinone] | 3.91 | 6.82 |  |  | 
3 | CC(=O)O[C@H]1CCN(CC#CCN(C)C)C1=O [(S)-3-(Acetyloxy)-1-[4-(dimethylamino)-2-butynyl]-2-pyrrolidinone] | 2.87 | 6.28 |  |  | 
4 | O=C1[C@@H](O)CCN1CC#CCN1CCCCC1 [(S)-3-Hydroxy-1-[4-(1-piperidinyl)-2-butynyl]-2-pyrrolidinone] | 4.66 | 6.32 |  |  | 
5 | O=C1[C@@H](O)CCN1CC#CCN1CCCC1 [(S)-3-Hydroxy-1-[4-(1-pyrrolidinyl)-2-butynyl]-2-pyrrolidinone] | 4.96 | 8.05 |  |  | 
6 | O=C1[C@@H](S)CCN1CC#CCN1CCCCC1 [(S)-3-Mercapto-1-[4-(1-piperidinyl)-2-butynyl]-2-pyrrolidinone, monohydrochloride] | 5.60 | 6.02 |  |  | 
7 | O=C1[C@@H](S)CCN1CC#CCN1CCCC1 [(S)-3-Mercapto-1-[4-(1-pyrrolidinyl)-2-butynyl]-2-pyrrolidinone, monohydrochloride] | 5.70 | 7.32 |  |  | 
8 | CO[C@H]1CCN(CC#CCN2CCCCC2)C1=O [(S)-3-Methoxy-1-[4-(1-piperidinyl)-2-butynyl]-2-pyrrolidinone] | 3.17 | 4.48 |  |  | 
9 | CO[C@H]1CCN(CC#CCN2CCCC2)C1=O [(S)-3-Methoxy-1-[4-(1-pyrrolidinyl)-2-butynyl]-2-pyrrolidinone] | 3.36 | 5.93 |  |  | 
10 | CC(C)(C)[Si](C)(C)O[C@H]1CCN(CC#CCN2CCCCC2)C1=O [(S)-3-[[(1,1-Dimethylethyl)dimethylsilyl]oxy]-1-[4-(1-piperidinyl)-2-butynyl]-2-pyrrolidinone] | 4.62 | 6.79 |  |  | 
11 | CNC(=O)O[C@H]1CCN(CC#CCN2CCCCC2)C1=O [(S)-3-[[(Methylamino)carbonyl]oxy]-1-[4-(1-piperidinyl)-2-butynyl]-2-pyrrolidinone] |  | 4.06 | 3.13 |  | 
12 | CC(=O)O[C@H]1CC(=O)N(CC#CCN2CCCCC2)C1 [(S)-4-(Acetyloxy)-1-[4-(1-piperidinyl)-2-butynyl]-2-pyrrolidinone] | 3.80 | 5.02 |  |  | 
13 | CC(=O)O[C@H]1CC(=O)N(CC#CCN2CCCC2)C1 [(S)-4-(Acetyloxy)-1-[4-(1-pyrrolidinyl)-2-butynyl]-2-pyrrolidinone] | 3.95 | 5.21 |  |  | 
14 | CC(=O)O[C@H]1CC(=O)N(CC#CCN(C)C)C1 [(S)-4-(Acetyloxy)-1-[4-(dimethylamino)-2-butynyl]-2-pyrrolidinone] | 2.87 | 4.38 |  |  | 
15 | O=C1C[C@H](O)CN1CC#CCN1CCCCC1 [(S)-4-Hydroxy-1-[4-(1-piperidinyl)-2-butynyl]-2-pyrrolidinone] | 3.70 | 4.44 |  |  | 
16 | O=C1C[C@H](O)CN1CC#CCN1CCCC1 [(S)-4-Hydroxy-1-[4-(1-pyrrolidinyl)-2-butynyl]-2-pyrrolidinone] | 3.57 | 5.31 |  |  | 
17 | CC(C)(C)[Si](C)(C)O[C@H]1CC(=O)N(CC#CCN2CCCC2)C1 [(S)-4-[[(1,1-Dimethylethyl)dimethylsilyl]oxy]-1-[4-(1-pyrrolidinyl)-2-butynyl]-2-pyrrolidinone] | 4.64 | 5.02 |  |  | 
18 | CC(=O)S[C@H]1CCN(CC#CCN2CCCC2)C1=O [(S)-S-(2-Oxo-1-[4-(1-pyrrolidinyl)-2-butynyl]-3-pyrrolidinyl]ethanethioic acid ester] | 5.40 | 7.15 |  |  | 
19 | CC(=O)S[C@H]1CCN(CC#CCN(C)C)C1=O [(S)-S-[1-[4-(Dimethylamino)-2-butynyl]-2-oxo-3-pyrrolidinyl]ethanethioic acid ester] | 4.40 | 5.81 |  |  | 
20 | CC(=O)S[C@H]1CCN(CC#CCN2CCCCC2)C1=O [(S)-S-[2-Oxo-1-[4-(1-piperidinyl)-2-butynyl]-3-pyrrolidinyl]ethanethioic acid ester] | 4.85 | 5.61 |  |  | 
21 | C[N+](C)(C)CC#CCN1CCCC1=O [N,N,N-Trimethyl-4-(2-oxo-1-pyrrolidinyl)-2-butyn-1-aminium iodide, reference compound] | 4.74 | 8.52 |  |  | 
22 | O=C1[C@H](SS[C@@H]2CCN(CC#CCN3CCCCC3)C2=O)CCN1CC#CCN1CCCCC1 [[R-(R*,R*)]-3,3'-dithiobis[1-[4-(1-piperidinyl)-2-butynyl]]-2-pyrrolidinone] |  | 5.74 | 5.05 |  | 
23 | COC(=O)C1=CCCN(C)C1 [arecoline] |  |  |  | significant improvement in performance | more-consistent improvement when compared to the anticholinesterase inhibitor physostigmine
24 | O=C1CCCN1CC#CCN1CCCC1 [oxotremorine] |  |  |  | significant improvement in performance | 

— patent US4937235A, “3- or 4-substituted oxotremorine derivatives” (American Cyanamid Company, priority 1989, dated 1990)
